The results in this text go back to patent US20240226117A1, “TREATMENT OF CONGENITAL ADRENAL HYPOPLASIA” (ReveraGen BioPharma, Inc., priority 2021, published 2024).

Structures are written as SMILES.

In one data set the test system is ambulant boys with DMD. Description: VBP15-004 bone turnover biomarkers. The settings on record: for Osteocalcin, difference vs. prednisone / Procollagen 1 N-Terminal Propeptide (P1NP), difference vs. prednisone / Type I Collagen C-Telopeptides (CTX), difference vs. prednisone: Week 24, p < 0.001. In kind it is in vivo, human.
A further data set deals with DMD participants. As to the kind of experiment: VBP15-003/VBP15-LTE motor outcomes over 18 months (TTSTAND, TTRW, TTCLIMB, 6MWT, NSAA). It is filed as in vivo, human. The settings on record: ANCOVA; for TTCLIMB velocity, LS mean difference (SE) / TTSTAND velocity, LS mean difference (SE): vamorolone 2.0 or 6.0 mg/kg/day 18 months versus corticosteroid-naïve DNHS. As to the method:
Three consecutive clinical trials of vamorolone treatment of DMD were conducted by CINRG (VBP15-002 [NCT02760264]: VBP15-003 [NCT02760277]: VBP15-LTE [NCT03038399]). A total of 48 participants (ages 4 to <7 years) were initially enrolled into VBP15-002, with trial participants completing month 12 of the 24-month VBP15-LTE study.
The consecutive vamorolone trials (VBP15-002, VBP15-003, VBP15-LTE) were open-label with no placebo comparator. Corticosteroid-naïve and corticosteroid-treated DMD participant comparators were group-matched participants from the CINRG DNHS (NCT00468832). The CINRG DNHS was an observational, prospective case-control study of 551 participants (440 with DMD, 111 healthy peers). For group matching between vamorolone-treated participants and CINRG DNHS participants, prespecified criteria were defined for matching within the interim statistical analysis plan (iSAP). Age-matched CINRG DNHS participants included those continuously corticosteroid-naïve over an 18-month period (n=19) or continuously corticosteroid-treated over an 18-month period (n=68). For the 68 corticosteroid-treated participants, as this was an observational cohort, corticosteroid doses and regimens varied based on clinician discretion. Although all 68 participants were treated for 18 months continuously, the age at initiation of corticosteroids varied. Thus, the total duration of corticosteroid treatment was longer than 18 months for most participants.
Assessments of efficacy were motor outcomes (primary outcome: time to stand from supine [TTSTAND]: secondary outcomes: time to run/walk 10 meters [TTRW], time to climb four stairs [TTCLIMB], distance covered in 6-minute walk test [6MWT], and the North Star Ambulatory Assessment [NSAA]). 6MWT and NSAA were not assessed in most CINRG DNHS participants and were not compared to vamorolone-treated participants. According to standard operating procedures, clinical evaluators were trained to harmonize the CINRG vamorolone, CINRG DNHS, and CINRG prednisone studies. Reliability of these outcomes (percent coefficient of variation) has been reported for the VBP15-002/VBP15-003 studies. Assessments were done at baseline (VBP15-002 entry), 24 weeks (VBP15-003 last visit), and 18 months (VBP15-LTE midpoint assessment at 12 months).
Only participants completing VBP15-002 and VBP15-003 were eligible to enroll in VBP15-LTE. Participants received vamorolone at 1 of 4 dose levels (0.25, 0.75, 2.0, or 6.0 mg/kg/day) and at the same dose level in both the 4-week VBP15-002 trial and the 24-week VBP15-003 trial. If participants, their families, and their physicians wished to continue vamorolone treatment upon exiting the VBP15-003 trial, they were offered participation in the 24-month long-term extension (VBP15-LTE). The last visit of the VBP15-003 trial was commensurate with the first visit of the VBP15-LTE trial. In all studies, study medication was provided as 4% flavored liquid suspension and was dosed according to body weight and given once daily in the morning with food.
Vamorolone-treated participants were initially enrolled into VBP15-002 and VBP15-003 in 4 dose groups (0.25, 0.75, 2.0, and 6.0 mg/kg/day: groups A-D). Upon entering VBP15-LTE, vamorolone group A participants had 2 or 3 sequential dose escalations and were treated with 2.0 or 6.0 mg/kg/day for the last 3-9 months of the 18 months: group B participants had 1 or 2 dose escalations and were treated with 2.0 or 6.0 mg/kg/day for the last 9-11 months. Groups C and D were treated for 18 months at 2.0 or 6.0 mg/kg/day (S1 Fig).
The current study is the first to evaluate the longer-term tolerability, efficacy, and safety of vamorolone in DMD. […] Given the variable timing of dose escalations, it was prespecified that initial analyses of drug-related efficacy and safety would be limited to those participants who had 18 months of treatment with 2.0 mg/kg/day vamorolone or more (dose group C+dose group D: n=23). […]

Setting [1] is: vamorolone 18 months versus corticosteroid-naïve participants.

`C[C@@H]1C[C@H]2[C@@H]3CCC4=CC(=O)C=C[C@]4(C)C3=CC[C@]2(C)[C@@]1(O)C(=O)CO` [Vamorolone, 17α,21-dihydroxy-16α-methylpregna-1,4,9(11)-triene-3,20-dione]: in the data set on ambulant boys with DMD (Vamorolone 2.0 mg, N = 17), the “Osteocalcin, mean (SEM) change at Week 24” value is recorded as 8.3 (3.1) ng/ml; the “Procollagen 1 N-Terminal Propeptide (P1NP), mean (SEM) change at Week 24” value is on record as 48 (27) ng/mL; the “Type I Collagen C-Telopeptides (CTX), mean (SEM) change at Week 24” value is listed as 177 (52) pg/mL. For the same molecule, in the data set with ambulant boys with DMD (Vamorolone 2.0 mg), the “Osteocalcin, difference vs. prednisone” value stood at 23.5 ng/mL; the “Procollagen 1 N-Terminal Propeptide (P1NP), difference vs. prednisone” value is given as 182 ng/mL; the “Type I Collagen C-Telopeptides (CTX), difference vs. prednisone” value is on record as 477 pg/mL. Besides, in the data set on ambulant boys with DMD (Vamorolone 6.0 mg), the “Osteocalcin, difference vs. prednisone” value amounted to 16.9 ng/mL; the “Procollagen 1 N-Terminal Propeptide (P1NP), difference vs. prednisone” value worked out at 124 ng/mL; the “Type I Collagen C-Telopeptides (CTX), difference vs. prednisone” value turned out to be 390 pg/mL. For the same molecule, in the data set on DMD participants, the “TTCLIMB velocity, LS mean difference (SE)” value is given as 0.059 (0.026) event/second and the “TTSTAND velocity, LS mean difference (SE)” value is 0.042 (0.024) event/second. In the data set with DMD participants (listed as vamorolone), the “TTCLIMB velocity, LS mean difference (SE)” value came to 0.059 event/second and the “TTSTAND velocity, LS mean difference (SE)” value stood at 0.042 event/second. Moreover, in the data set on DMD participants (setting [1]), the “TTCLIMB in seconds units, LS mean difference” value was -0.34 s and the “TTRW in seconds units, LS mean difference” value was -0.84 s.
